Source: patent US6355799B1, “Substituted benzene compounds, process for their preparation, and herbicidal and defoliant compositions containing them” (ISK Americas Incorporated, priority 1997, dated 2002)

Tests used:
Type in all cases: in vivo
[1] = tested on: barnyardgrass (Echinochloa crus-galli, ECHCG); experiment: Pre-emerge test, greenhouse herbicide activity screening; details: Echinochloa crus-galli, pre-emergence, 336 h, pre-emerge, phytotoxicity rating 0-100 at 14 days after application, read-out: Pre-emerge Herbicidal Activity ECHCG; for pest or weed control at 63 g/ha: rate 63 g ai/ha; for pest or weed control at 250 g/ha: rate 250 g ai/ha
In short: (§1)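 Applied at 15–1000 g ai/ha from acetone in 187 l/ha spray volume. Post-emergence applications included 0.25% v/v non-ionic surfactant and reached plants sown 8–21 days before. Pre-emergence applications were incorporated by surface watering. Efficacy or crop damage was rated on a 0–100 scale after 14 days.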

[2] = tested on: velvetleaf (Abutilon theophrasti, ABUTH); experiment: as above; details: Abutilon theophrasti, pre-emergence, 336 h, pre-emerge, phytotoxicity rating 0-100 at 14 days after application, read-out: Pre-emerge Herbicidal Activity ABUTH; for pest or weed control at 63 g/ha: rate 63 g ai/ha; for pest or weed control at 250 g/ha: rate 250 g ai/ha
In short: as §1

[3] = tested on: sicklepod (Cassia obtusifolia, CASOB); experiment: as above; details: Senna obtusifolia, pre-emergence, 336 h, pre-emerge, phytotoxicity rating 0-100 at 14 days after application, read-out: Pre-emerge Herbicidal Activity CASOB; for pest or weed control at 63 g/ha: rate 63 g ai/ha; for pest or weed control at 250 g/ha: rate 250 g ai/ha
In short: as §1

[4] = tested on: green foxtail (Setaria viridis, SETVI); experiment: as above; details: Setaria viridis, pre-emergence, 336 h, pre-emerge, phytotoxicity rating 0-100 at 14 days after application, read-out: Pre-emerge Herbicidal Activity SETVI; for pest or weed control at 63 g/ha: rate 63 g ai/ha; for pest or weed control at 250 g/ha: rate 250 g ai/ha
In short: as §1

[5] = tested on: johnsongrass (Sorghum halepense, SORHA); experiment: as above; details: Sorghum halepense, pre-emergence, 336 h, pre-emerge, phytotoxicity rating 0-100 at 14 days after application, read-out: Pre-emerge Herbicidal Activity SORHA; for pest or weed control at 63 g/ha: rate 63 g ai/ha; for pest or weed control at 250 g/ha: rate 250 g ai/ha
In short: as §1

[6] = tested on: ivyleaf morningglory (Ipomoea hederacea, IPOHE); experiment: as above; details: Ipomoea, pre-emergence, 336 h, pre-emerge, phytotoxicity rating 0-100 at 14 days after application, read-out: Pre-emerge Herbicidal Activity IPOHE; for pest or weed control at 63 g/ha: rate 63 g ai/ha; for pest or weed control at 250 g/ha: rate 250 g ai/ha
In short: as §1

[7] = tested on: lambsquarters (Chenopodium album, CHEAL); experiment: as above; details: Chenopodium album, pre-emergence, 336 h, pre-emerge, phytotoxicity rating 0-100 at 14 days after application, read-out: Pre-emerge Herbicidal Activity CHEAL; for pest or weed control at 63 g/ha: rate 63 g ai/ha; for pest or weed control at 250 g/ha: rate 250 g ai/ha
In short: as §1

[8] = tested on: large crabgrass (Digitaria sanguinalis, DIGSA); experiment: as above; details: Digitaria sanguinalis, pre-emergence, 336 h, pre-emerge, phytotoxicity rating 0-100 at 14 days after application, read-out: Pre-emerge Herbicidal Activity DIGSA; for pest or weed control at 63 g/ha: rate 63 g ai/ha; for pest or weed control at 250 g/ha: rate 250 g ai/ha
In short: as §1

[9] = tested on: barnyardgrass (Echinochloa crus-galli, ECHCG); experiment: Post-emerge test, greenhouse herbicide activity screening; details: Echinochloa crus-galli, post-emergence, 336 h, post-emerge, phytotoxicity rating 0-100 at 14 days after application, read-out: Post-emerge Herbicidal Activity ECHCG; for pest or weed control at 63 g/ha: 63 g ai/ha; for pest or weed control at 250 g/ha: 250 g ai/ha
In short: (§2)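 Compounds in acetone were track-sprayed at 15-1000 g ai/ha (187 l/ha) on sandy loam pots: pre-emerge one day after seeding, post-emerge at 2-3 leaf stage with 0.25% v/v non-ionic surfactant. Phytotoxicity was rated 14 days later on a 0 (no damage) to 100 (complete death) scale.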

[10] = tested on: velvetleaf (Abutilon theophrasti, ABUTH); experiment: as above; details: Abutilon theophrasti, post-emergence, 336 h, post-emerge, phytotoxicity rating 0-100 at 14 days after application, read-out: Post-emerge Herbicidal Activity ABUTH; for pest or weed control at 63 g/ha: 63 g ai/ha; for pest or weed control at 250 g/ha: 250 g ai/ha
In short: as §2

[11] = tested on: sicklepod (Cassia obtusifolia, CASOB); experiment: as above; details: Senna obtusifolia, post-emergence, 336 h, post-emerge, phytotoxicity rating 0-100 at 14 days after application, read-out: Post-emerge Herbicidal Activity CASOB; for pest or weed control at 63 g/ha: 63 g ai/ha; for pest or weed control at 250 g/ha: 250 g ai/ha
In short: as §2

[12] = tested on: green foxtail (Setaria viridis, SETVI); experiment: as above; details: Setaria viridis, post-emergence, 336 h, post-emerge, phytotoxicity rating 0-100 at 14 days after application, read-out: Post-emerge Herbicidal Activity SETVI; for pest or weed control at 63 g/ha: 63 g ai/ha; for pest or weed control at 250 g/ha: 250 g ai/ha
In short: as §2

[13] = tested on: johnsongrass (Sorghum halepense, SORHA); experiment: as above; details: Sorghum halepense, post-emergence, 336 h, post-emerge, phytotoxicity rating 0-100 at 14 days after application, read-out: Post-emerge Herbicidal Activity SORHA; for pest or weed control at 63 g/ha: 63 g ai/ha; for pest or weed control at 250 g/ha: 250 g ai/ha
In short: as §2

[14] = tested on: ivyleaf morningglory (Ipomoea hederacea, IPOHE); experiment: as above; details: Ipomoea, post-emergence, 336 h, post-emerge, phytotoxicity rating 0-100 at 14 days after application, read-out: Post-emerge Herbicidal Activity IPOHE; for pest or weed control at 63 g/ha: 63 g ai/ha; for pest or weed control at 250 g/ha: 250 g ai/ha
In short: as §2

[15] = tested on: lambsquarters (Chenopodium album, CHEAL); experiment: as above; details: Chenopodium album, post-emergence, 336 h, post-emerge, phytotoxicity rating 0-100 at 14 days after application, read-out: Post-emerge Herbicidal Activity CHEAL; for pest or weed control at 63 g/ha: 63 g ai/ha; for pest or weed control at 250 g/ha: 250 g ai/ha
In short: as §2

Row | Structure (SMILES) | pest or weed control at 63 g/ha [1] [%] | pest or weed control at 250 g/ha [1] [%] | pest or weed control at 63 g/ha [2] [%] | pest or weed control at 250 g/ha [2] [%] | pest or weed control at 63 g/ha [3] [%] | pest or weed control at 250 g/ha [3] [%] | pest or weed control at 63 g/ha [4] [%] | pest or weed control at 250 g/ha [4] [%] | pest or weed control at 63 g/ha [5] [%] | pest or weed control at 250 g/ha [5] [%] | pest or weed control at 63 g/ha [6] [%] | pest or weed control at 250 g/ha [6] [%] | pest or weed control at 63 g/ha [7] [%] | pest or weed control at 250 g/ha [7] [%] | pest or weed control at 63 g/ha [8] [%] | pest or weed control at 250 g/ha [8] [%] | pest or weed control at 63 g/ha [9] [%] | pest or weed control at 250 g/ha [9] [%] | pest or weed control at 63 g/ha [10] [%] | pest or weed control at 250 g/ha [10] [%] | other results
1 | CC(C)Oc1c(Cl)cc(F)c(-n2nnn(CCCF)c2=O)c1N [Compound 5-18, 1-(2-amino-4-chloro-6-fluoro-3-isopropyloxyphenyl)-4-(3fluoropropyl)-1,4-dihydro-5-oxo-5H-tetrazole] | 0 | 0 | 40 | 70 | 0 | 10 | 95 | 90 | 40 | 30 | 0 | 0 | 70 | 95 | 30 | 20 | 0 | 0 | 70 | 70 | pest or weed control at 63 g/ha [11]: 0%; pest or weed control at 250 g/ha [11]: 0%; pest or weed control at 63 g/ha [12]: 0%; pest or weed control at 250 g/ha [12]: 0%; pest or weed control at 63 g/ha [13]: 0%; pest or weed control at 250 g/ha [13]: 0%; pest or weed control at 63 g/ha [14]: 0%; pest or weed control at 250 g/ha [14]: 0%; pest or weed control at 63 g/ha [15]: 10%; pest or weed control at 250 g/ha [15]: 10%
2 | Cc1nn(-c2c(Cl)cc(Cl)c(N)c2N)c(=O)n1C(F)F [Compound 6-20] | 0 | 0 | 0 | 0 | 0 | 0 | 0 | 0 | 0 | 0 | 0 | 0 | 50 | 30 | 0 | 0 | 0 | 0 | 0 | 50 | pest or weed control at 63 g/ha [11]: 0%; pest or weed control at 250 g/ha [11]: 0%; pest or weed control at 63 g/ha [12]: 0%; pest or weed control at 250 g/ha [12]: 0%; pest or weed control at 63 g/ha [13]: 0%; pest or weed control at 250 g/ha [13]: 0%; pest or weed control at 63 g/ha [14]: 0%; pest or weed control at 250 g/ha [14]: 40%; pest or weed control at 63 g/ha [15]: 0%; pest or weed control at 250 g/ha [15]: 60%
3 | Cc1nn(-c2c(N)cc(Cl)cc2F)c(=O)n1C(F)F [Compound 6-22] | 0 | 0 | 20 | 100 | 0 | 60 | 10 | 50 | 0 | 10 | 0 | 0 | 40 | 100 | 0 | 20 | 0 | 0 | 60 | 80 | pest or weed control at 63 g/ha [11]: 0%; pest or weed control at 250 g/ha [11]: 0%; pest or weed control at 63 g/ha [12]: 0%; pest or weed control at 250 g/ha [12]: 0%; pest or weed control at 63 g/ha [13]: 0%; pest or weed control at 250 g/ha [13]: 0%; pest or weed control at 63 g/ha [14]: 20%; pest or weed control at 250 g/ha [14]: 70%; pest or weed control at 63 g/ha [15]: 50%; pest or weed control at 250 g/ha [15]: 70%
